# ChEMBL document CHEMBL4825739, “Cannabinoid Receptor Agonists for the Potential Treatment of Pain, Neurological Disorders, Fibrotic Diseases, Obesity, and Many More” (ACS Med Chem Lett, 2021)
# Key:
# Type in all cases: functional, cell-based
# Cannabinoid receptor 1 [1] = target: T1, Cannabinoid receptor 1 (Homo sapiens, UniProt P21554); test: Agonist activity at human CB1 receptor expressed in CHO-K1 cells assessed as […] incubated for 20 mins measured after 60 mins addition of cAMP detect reagent by HTRF analysis
# Cannabinoid receptor 1 [2] = target: T1, Cannabinoid receptor 1; test: Agonist activity at human CB1 receptor expressed in CHO-K1 cells assessed as maximum efficacy incubated for 20 mins measured after 60 mins addition of cAMP detect reagent by HTRF analysis relative to control; conditions: filed as agonist
# Cannabinoid receptor 2 [3] = target: T2, Cannabinoid receptor 2 (Homo sapiens, UniProt P34972); test: Agonist activity at human CB2 receptor expressed in CHO-K1 cells assessed as maximum efficacy incubated for 20 mins measured after 60 mins addition of cAMP detect reagent by HTRF analysis relative to control; conditions: filed as agonist, time 80.0 min
# Cannabinoid receptor 2 [4] = target: T2, Cannabinoid receptor 2; test: Agonist activity at human CB2 receptor expressed in CHO-K1 cells assessed as […] incubated for 20 mins measured after 60 mins addition of cAMP detect reagent by HTRF analysis
# T1 sequence (P21554 whole entry): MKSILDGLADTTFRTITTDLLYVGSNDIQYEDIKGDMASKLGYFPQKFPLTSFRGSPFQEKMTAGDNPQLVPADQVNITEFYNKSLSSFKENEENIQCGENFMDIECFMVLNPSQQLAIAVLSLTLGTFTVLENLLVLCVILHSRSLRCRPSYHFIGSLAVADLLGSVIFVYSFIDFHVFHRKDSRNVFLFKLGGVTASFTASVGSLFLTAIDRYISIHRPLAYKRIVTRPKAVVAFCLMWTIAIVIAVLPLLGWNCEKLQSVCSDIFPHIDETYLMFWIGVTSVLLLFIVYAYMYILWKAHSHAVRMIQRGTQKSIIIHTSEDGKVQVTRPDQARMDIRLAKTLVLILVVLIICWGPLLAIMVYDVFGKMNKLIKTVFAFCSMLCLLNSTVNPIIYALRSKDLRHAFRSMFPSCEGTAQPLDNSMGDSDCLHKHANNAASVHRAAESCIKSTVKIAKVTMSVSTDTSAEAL
# T2 sequence (P34972 whole entry): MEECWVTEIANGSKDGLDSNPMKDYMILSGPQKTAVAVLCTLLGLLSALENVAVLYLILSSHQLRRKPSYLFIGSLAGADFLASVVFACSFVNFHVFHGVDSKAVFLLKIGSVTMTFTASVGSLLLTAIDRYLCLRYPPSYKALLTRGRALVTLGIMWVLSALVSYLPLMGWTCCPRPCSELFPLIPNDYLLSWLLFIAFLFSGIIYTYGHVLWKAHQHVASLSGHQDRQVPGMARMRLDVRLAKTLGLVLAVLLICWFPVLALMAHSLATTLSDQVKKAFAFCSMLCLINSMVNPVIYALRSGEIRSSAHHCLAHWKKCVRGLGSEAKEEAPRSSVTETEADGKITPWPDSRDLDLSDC
structure (smiles),measurement,setting,value
CC(C)(C)NC(=O)c1c2c(nn1-c1cnccn1)CC1CCC2O1 (stereo not given),EC50,Cannabinoid receptor 1 [1],1650 nM
same,Emax,Cannabinoid receptor 1 [2],85.8%
same,Emax,Cannabinoid receptor 2 [3],< 50%
"CC(C)(C)[C@@H](CO)NC(=O)c1nn(-c2cnccn2)c2c1C[C@H]1CCC2O1 (single isomer, unassigned)",EC50,Cannabinoid receptor 1 [1],0.09 nM
same,EC50,Cannabinoid receptor 2 [4],422 nM
same,Emax,Cannabinoid receptor 1 [2],100%
same,Emax,Cannabinoid receptor 2 [3],111%
CC(C)(C)NC(=O)c1nn(-c2ccc(F)cc2F)c2c1CC1CCC2O1 (stereo not given),EC50,Cannabinoid receptor 1 [1],1.2 nM
same,EC50,Cannabinoid receptor 2 [4],108 nM
same,Emax,Cannabinoid receptor 1 [2],95.6%
same,Emax,Cannabinoid receptor 2 [3],99%
CC(C)(C)NC(=O)c1c2c(nn1-c1c[n+]([O-])ccn1)CC1CCC2O1 (stereo not given),EC50,Cannabinoid receptor 1 [1],2670 nM
same,Emax,Cannabinoid receptor 1 [2],80.3%
same,Emax,Cannabinoid receptor 2 [3],< 50%
O=C(NC12CC3CC(CC1C3)C2)c1nn(-c2ccc(F)cc2F)c2c1CC1CCC2O1 (stereo not given),EC50,Cannabinoid receptor 1 [1],0.08 nM
same,EC50,Cannabinoid receptor 2 [4],0.7 nM
same,Emax,Cannabinoid receptor 1 [2],99.1%
same,Emax,Cannabinoid receptor 2 [3],98%
CC(C)(C)NC(=O)c1c2c(nn1-c1ccc(F)cc1F)C1CCC(C2)O1 (stereo not given),EC50,Cannabinoid receptor 1 [1],2980 nM
same,Emax,Cannabinoid receptor 1 [2],72.8%
same,Emax,Cannabinoid receptor 2 [3],< 50%
CC(C)(C)[C@@H](CO)NC(=O)c1nn(-c2cnccn2)c2c1C[C@@H]1CC[C@H]2O1,EC50,Cannabinoid receptor 1 [1],0.56 nM
same,Emax,Cannabinoid receptor 1 [2],100%
same,Emax,Cannabinoid receptor 2 [3],< 50%
O=C(NC12CC3CC(CC1C3)C2)c1nn(-c2cnccn2)c2c1CC1CCC2O1 (stereo not given),EC50,Cannabinoid receptor 1 [1],0.02 nM
same,EC50,Cannabinoid receptor 2 [4],16.6 nM
same,Emax,Cannabinoid receptor 1 [2],100%
same,Emax,Cannabinoid receptor 2 [3],111%
O=C(NC1(C(F)(F)F)CCC1)c1nn(-c2cnccn2)c2c1CC1CCC2O1 (stereo not given),EC50,Cannabinoid receptor 1 [1],0.04 nM
same,EC50,Cannabinoid receptor 2 [4],571 nM
same,Emax,Cannabinoid receptor 1 [2],100%
same,Emax,Cannabinoid receptor 2 [3],90.3%
CC(C)(C)c1nnc(-c2nn(-c3c[n+]([O-])ccn3)c3c2CC2CCC3O2)s1 (stereo not given),EC50,Cannabinoid receptor 1 [1],0.06 nM
same,EC50,Cannabinoid receptor 2 [4],130 nM
same,Emax,Cannabinoid receptor 1 [2],99%
same,Emax,Cannabinoid receptor 2 [3],94.9%
O=C(NC12CC(C1)C2)c1nn(-c2c[n+]([O-])ccn2)c2c1CC1CCC2O1 (stereo not given),EC50,Cannabinoid receptor 1 [1],0.05 nM
same,EC50,Cannabinoid receptor 2 [4],1780 nM
same,Emax,Cannabinoid receptor 1 [2],100%
same,Emax,Cannabinoid receptor 2 [3],91%
O=C(NC12CCC(CC1)CC2)c1nn(-c2c[n+]([O-])ccn2)c2c1CC1CCC2O1 (stereo not given),EC50,Cannabinoid receptor 1 [1],0.02 nM
same,EC50,Cannabinoid receptor 2 [4],48.5 nM
same,Emax,Cannabinoid receptor 1 [2],99.7%
same,Emax,Cannabinoid receptor 2 [3],96.5%
CCC(C)(C)c1noc(-c2nn(-c3cnccn3)c3c2CC2CCC3O2)n1 (stereo not given),EC50,Cannabinoid receptor 1 [1],0.04 nM
same,Emax,Cannabinoid receptor 1 [2],99.8%
same,Emax,Cannabinoid receptor 2 [3],< 50%
CC(C)(C)NC(=O)c1c2c(nn1-c1c[n+]([O-])ccn1)C1CCC(C2)O1 (stereo not given),EC50,Cannabinoid receptor 1 [1],7970 nM
same,Emax,Cannabinoid receptor 1 [2],66.3%
same,Emax,Cannabinoid receptor 2 [3],< 50%
